Test results as given in ChEMBL document CHEMBL1201862, “PubChem BioAssay data set” (2004).
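The compound was tested at five concentrations on cells cultured in 96-well plates, with a 48-hour exposure period. The concentration for 50% growth inhibition is given as GI50.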 Activity calls are given as the source filed them. Cut-off read from the data, not from the text of the source: active = GI50 up to about 1.1 µM and inactive = higher.

Legend:
Assay in all cases: DTP human tumour cell line panel, 48 h
[1] = test system: TK-10
[2] = test system: UO-31
[3] = test system: OVCAR-5
[4] = test system: CCRF-CEM
[5] = test system: IGROV-1
[6] = test system: 786-0
[7] = test system: Hs-578T
[8] = test system: SK-OV-3
[9] = test system: UACC-62
[10] = test system: SK-MEL-28
[11] = test system: CAKI-1
[12] = test system: MDA-N
[13] = test system: BT-549
[14] = test system: SF-268
[15] = test system: NCI-H460
[16] = test system: NCI-H226
[17] = test system: COLO 205
[18] = test system: LOX IMVI
[19] = test system: MDA-MB-231
[20] = test system: T47D
[21] = test system: OVCAR-4
[22] = test system: RPMI-8226
[23] = test system: SNB-19
[24] = test system: HL-60
[25] = test system: HCT-15
[26] = test system: NCI-H23
[27] = test system: K562
[28] = test system: MCF7
[29] = test system: KM12
[30] = test system: SF-539
[31] = test system: MDA-MB-435
[32] = test system: SK-MEL-5
[33] = test system: EKVX
[34] = test system: HT-29
[35] = test system: HOP-62
[36] = test system: A549
[37] = test system: HOP-92
[38] = test system: HCC 2998
[39] = test system: SF-295
[40] = test system: SW-620
[41] = test system: SN12C
[42] = test system: SK-MEL-2
[43] = test system: OVCAR-3
[44] = test system: NCI-H522
[45] = test system: OVCAR-8
[46] = test system: RXF 393
[47] = test system: HCT-116
[48] = test system: PC-3
[49] = test system: NCI/ADR-RES
[50] = test system: SR
[51] = test system: SNB-75
[52] = test system: A498
[53] = test system: U-251
[54] = test system: DU-145
[55] = test system: ACHN
[56] = test system: UACC-257
[57] = test system: M14
[58] = test system: MOLT-4
[59] = test system: Malme-3M

O=[N+]([O-])c1cc2no[n+]([O-])c2cc1N1CCCCC1
GI50 [1]: 3.33 µM (inactive) | GI50 [2]: 2.07 µM (inactive) | GI50 [3]: 8.39 µM (inactive) | GI50 [4]: 0.38 µM (active) | GI50 [5]: 3.21 µM (inactive) | GI50 [6]: 1.29 µM (inactive) | GI50 [7]: 25.1 µM (inactive) | GI50 [8]: 14 µM (inactive) | GI50 [9]: 13.4 µM (inactive) | GI50 [10]: 7.28 µM (inactive) | GI50 [11]: 3.35 µM (inactive) | GI50 [12]: 2.59 µM (inactive) | GI50 [13]: 9.29 µM (inactive) | GI50 [14]: 8.18 µM (inactive) | GI50 [15]: 15.6 µM (inactive) | GI50 [16]: 39.8 µM (inactive) | GI50 [17]: 5.37 µM (inactive) | GI50 [18]: 1.79 µM (inactive) | GI50 [19]: 8.47 µM (inactive) | GI50 [20]: 1.39 µM (inactive) | GI50 [21]: 2.25 µM (inactive) | GI50 [22]: 1.28 µM (inactive) | GI50 [23]: 16.3 µM (inactive) | GI50 [24]: 1.5 µM (inactive) | GI50 [25]: 3.21 µM | GI50 [26]: 12.5 µM (inactive) | GI50 [27]: 1.43 µM (inactive) | GI50 [28]: 1.95 µM (inactive) | GI50 [29]: 13.4 µM (inactive) | GI50 [30]: 2.39 µM (inactive) | GI50 [31]: 2.87 µM (inactive) | GI50 [32]: 15.3 µM (inactive) | GI50 [33]: 2.58 µM (inactive) | GI50 [34]: 1.76 µM (inactive) | GI50 [35]: 4.34 µM (inactive) | GI50 [36]: 11.3 µM (inactive) | GI50 [37]: 2.4 µM (inactive) | GI50 [38]: 13.2 µM (inactive) | GI50 [39]: 17.4 µM (inactive) | GI50 [40]: 1.97 µM (inactive) | GI50 [41]: 1.99 µM (inactive) | GI50 [42]: 7.05 µM (inactive) | GI50 [43]: 1.92 µM (inactive) | GI50 [44]: 1.48 µM (inactive) | GI50 [45]: 1.95 µM (inactive) | GI50 [46]: 1.51 µM (inactive) | GI50 [47]: 1.93 µM (inactive) | GI50 [48]: 2.16 µM (inactive) | GI50 [49]: 3.15 µM (inactive) | GI50 [50]: 2.94 µM (inactive) | GI50 [51]: 2.39 µM (inactive) | GI50 [52]: 17.9 µM (inactive) | GI50 [53]: 3.93 µM (inactive) | GI50 [54]: 2.45 µM (inactive) | GI50 [55]: 2.58 µM (inactive) | GI50 [56]: 8.24 µM (inactive) | GI50 [57]: 2.62 µM (inactive) | GI50 [58]: 1.06 µM (active)

C(=N\Nc1nnc(-c2nnc(N/N=C/c3ccccc3)o2)o1)/c1ccccc1
GI50 [1]: > 10 µM (inactive) | GI50 [2]: > 10 µM (inactive) | GI50 [3]: > 10 µM (inactive) | GI50 [4]: > 10 µM (inactive) | GI50 [5]: > 10 µM (inactive) | GI50 [6]: > 10 µM (inactive) | GI50 [7]: 6.19 µM (inactive) | GI50 [9]: > 10 µM (inactive) | GI50 [10]: > 10 µM (inactive) | GI50 [11]: > 10 µM (inactive) | GI50 [12]: > 10 µM (inactive) | GI50 [13]: > 10 µM (inactive) | GI50 [14]: > 10 µM (inactive) | GI50 [15]: > 10 µM (inactive) | GI50 [16]: > 10 µM (inactive) | GI50 [17]: > 10 µM (inactive) | GI50 [19]: > 10 µM (inactive) | GI50 [20]: > 10 µM (inactive) | GI50 [21]: > 10 µM (inactive) | GI50 [22]: > 10 µM (inactive) | GI50 [23]: > 10 µM (inactive) | GI50 [24]: > 10 µM (inactive) | GI50 [25]: > 10 µM | GI50 [26]: > 10 µM (inactive) | GI50 [27]: > 10 µM (inactive) | GI50 [28]: > 10 µM (inactive) | GI50 [29]: > 10 µM (inactive) | GI50 [30]: > 10 µM (inactive) | GI50 [31]: > 10 µM (inactive) | GI50 [32]: > 10 µM (inactive) | GI50 [33]: > 10 µM (inactive) | GI50 [34]: > 10 µM (inactive) | GI50 [35]: > 10 µM (inactive) | GI50 [36]: > 10 µM (inactive) | GI50 [37]: > 10 µM (inactive) | GI50 [38]: > 10 µM (inactive) | GI50 [39]: > 10 µM (inactive) | GI50 [40]: > 10 µM (inactive) | GI50 [41]: > 10 µM (inactive) | GI50 [43]: > 10 µM (inactive) | GI50 [45]: > 10 µM (inactive) | GI50 [46]: > 10 µM (inactive) | GI50 [47]: > 10 µM (inactive) | GI50 [48]: > 10 µM (inactive) | GI50 [49]: > 10 µM (inactive) | GI50 [50]: > 10 µM (inactive) | GI50 [52]: > 10 µM (inactive) | GI50 [53]: > 10 µM (inactive) | GI50 [59]: > 10 µM (inactive) | GI50 [54]: > 10 µM (inactive) | GI50 [55]: > 10 µM (inactive) | GI50 [56]: > 10 µM (inactive) | GI50 [57]: > 10 µM (inactive) | GI50 [58]: > 10 µM (inactive)

Nc1ncnc2oc(-c3cccs3)nc12
GI50 [1]: > 100 µM (inactive) | GI50 [2]: > 100 µM (inactive) | GI50 [3]: > 100 µM (inactive) | GI50 [4]: > 100 µM (inactive) | GI50 [5]: > 100 µM (inactive) | GI50 [6]: > 100 µM (inactive) | GI50 [7]: > 100 µM (inactive) | GI50 [9]: 66.1 µM (inactive) | GI50 [10]: > 100 µM (inactive) | GI50 [12]: > 100 µM (inactive) | GI50 [13]: > 100 µM (inactive) | GI50 [14]: > 100 µM (inactive) | GI50 [15]: > 100 µM (inactive) | GI50 [16]: > 100 µM (inactive) | GI50 [17]: > 100 µM (inactive) | GI50 [18]: > 100 µM (inactive) | GI50 [19]: > 100 µM (inactive) | GI50 [20]: > 100 µM (inactive) | GI50 [21]: > 100 µM (inactive) | GI50 [22]: > 100 µM (inactive) | GI50 [23]: > 100 µM (inactive) | GI50 [24]: > 100 µM (inactive) | GI50 [25]: > 100 µM | GI50 [26]: > 100 µM (inactive) | GI50 [27]: > 100 µM (inactive) | GI50 [28]: > 100 µM (inactive) | GI50 [29]: > 100 µM (inactive) | GI50 [30]: > 100 µM (inactive) | GI50 [31]: > 100 µM (inactive) | GI50 [32]: > 100 µM (inactive) | GI50 [33]: 37.5 µM (inactive) | GI50 [34]: 83.4 µM (inactive) | GI50 [35]: > 100 µM (inactive) | GI50 [36]: > 100 µM (inactive) | GI50 [37]: > 100 µM (inactive) | GI50 [38]: > 100 µM (inactive) | GI50 [39]: > 100 µM (inactive) | GI50 [40]: > 100 µM (inactive) | GI50 [41]: > 100 µM (inactive) | GI50 [42]: > 100 µM (inactive) | GI50 [43]: > 100 µM (inactive) | GI50 [44]: > 100 µM (inactive) | GI50 [45]: > 100 µM (inactive) | GI50 [46]: > 100 µM (inactive) | GI50 [47]: > 100 µM (inactive) | GI50 [48]: > 100 µM (inactive) | GI50 [49]: > 100 µM (inactive) | GI50 [50]: > 100 µM (inactive) | GI50 [52]: > 100 µM (inactive) | GI50 [53]: > 100 µM (inactive) | GI50 [54]: > 100 µM (inactive) | GI50 [55]: > 100 µM (inactive) | GI50 [56]: > 100 µM (inactive) | GI50 [57]: > 100 µM (inactive)
